Where two headings read alike, the source gives them in different places.
What was measured:
[1] = biological target: T1, human CB2R (Homo sapiens, UniProt P34972); test: Competition binding assay, displacement of [3H]-CP-55,940 from membranes of HEK-293 cells overexpressing CB2R; set-up: purchased Perkin-Elmer, Italy; host or cells: HEK-293 cells (membranes); settings: for inhibition at 25 µM: max conc. tested 25 µM
Procedure: (§1) The binding affinities (Ki values) of the compounds for human recombinant hCB1R and hCB2R were determined as previously described, using SR144528 as a reference compound [30], and are reported in Table 1.
(§2) Compound affinity for CB1R and CB2R was measured as previously reported. […] Competition curves were performed by displacing [^3H]-CP-55 940 with increasing concentrations of compounds (0.1 nM–10 or 25 μM). […] All compounds were tested following the procedure described by the manufacturer (Perkin-Elmer, Italy). Displacement curves were generated by incubating drugs with [^3H]-CP-55 940 for 90 min at 30 °C. Ki values were calculated by applying the Cheng−Prusoff equation to the IC50 values for the displacement of the bound radioligand by increasing concentrations of the test compound. Data represent the mean values of three independent experiments performed in duplicate and are expressed as the average of Ki (µM) ± standard deviation. Data were analyzed using PRISM.9.3 software (GraphPad Software Inc, San Diego, CA, USA).

[2] = biological target: T2, human recombinant CB1R (Homo sapiens, UniProt P21554); test: Competition binding assay, displacement of [3H]-CP-55,940 from membranes of HEK-293 cells overexpressing CB1R; settings: for inhibition at 10 µM / inhibition at 25 µM: read-out: % Displacement/ Max. Conc. Tested, hCB1R
T2 construct: purchased Perkin-Elmer, Italy; host or cells: HEK-293 cells (membranes)
T2 sequence (P21554 whole entry): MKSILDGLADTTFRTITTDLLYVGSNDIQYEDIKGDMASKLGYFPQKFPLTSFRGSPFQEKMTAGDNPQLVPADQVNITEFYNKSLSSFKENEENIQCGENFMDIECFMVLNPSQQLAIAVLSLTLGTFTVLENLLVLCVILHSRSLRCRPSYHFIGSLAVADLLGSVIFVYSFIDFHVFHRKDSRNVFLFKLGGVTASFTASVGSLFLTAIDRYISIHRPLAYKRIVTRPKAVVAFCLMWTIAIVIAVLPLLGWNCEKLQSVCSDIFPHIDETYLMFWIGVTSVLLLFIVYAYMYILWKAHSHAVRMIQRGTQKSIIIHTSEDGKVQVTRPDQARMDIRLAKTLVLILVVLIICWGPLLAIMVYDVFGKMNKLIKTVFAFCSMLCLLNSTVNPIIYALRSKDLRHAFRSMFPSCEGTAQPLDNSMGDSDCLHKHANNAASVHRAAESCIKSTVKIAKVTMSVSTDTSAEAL
Procedure: as §1, §2

[3] = biological target: T1, human CB2R; test: cAMP Hunter assay, effect on NKH-477-induced cAMP levels (agonist mode); type: cell-based; settings: for Effect on NKH-477-induced cAMP levels (functional behavior): CHO-K1 cells overexpressing human CB2R, compound alone
Procedure: The above-mentioned compounds were tested for their functional activity.
Gi-coupled cAMP modulation was measured following the manufacturer’s protocol (Eurofins, Fremont, CA, USA), as previously reported. Briefly, CHO-K1 cells overexpressing the human CB2R were plated into a 96-well plate (10,000 cells/well) and incubated overnight at 37 °C, 5% CO2. Media was aspirated and replaced with 30 μL of assay buffer. Cells were incubated for 30 min at 37 °C with 15 μL of 3× dose−response solutions of samples prepared in the presence of a cell assay buffer containing 3× of 25 μM NKH-477 solution to stimulate adenylate cyclase and enhance basal cAMP levels. For those compounds not showing a decrease in cAMP levels, the effect upon receptor activation in the presence of the JWH-133 selective agonist was investigated. Cells were pre-incubated with samples (15 min at 37 °C at 6× the final desired concentration), followed by 30 min incubation with the JWH-133 agonist challenge at the EC80 concentration (EC80 = 4 μM, previously determined in separate experiments) in the presence of NKH-477 to stimulate adenylate cyclase and enhance cAMP levels. Cell lysis and cAMP detection were performed as per the manufacturer’s protocol. Luminescence measurements were performed using a GloMax Multi Detection System (Promega, Italy). Data are reported as the means ± SEM of three independent experiments conducted in triplicate and were normalized considering the NKH-477 stimulus alone as 100% of the response. Data were analyzed using PRISM.9.3 software (GraphPad Software Inc, San Diego, CA, USA).
Figure 7 Concentration-response curves of compounds in the cAMP Hunter assay. Curves show the effect of increasing concentrations of compounds on NKH-477-induced cAMP levels in stable CHO cells expressing the human CB2. Data are reported as the means ± SEM of three independent experiments conducted in triplicate, normalized to the maximal and minimal responses.

[4] = biological target: T1, human CB2R; test: cAMP Hunter assay in the presence of JWH-133 agonist challenge (antagonist mode); type: cell-based; settings: for Antagonism of JWH-133-induced inhibition of NKH-477-induced cAMP formation: JWH-133 4 µM (EC80) agonist challenge
Procedure: (§3) Only a small displacement was observed and only at the highest concentration (Figure 8). We reasoned that the discrepancy with the predictions was mainly due to the chemical–physical features of the molecule and that the lack of antagonism was caused by issues related to compound solubility in the buffer used for the assay. Indeed, the maximum concentration of 12b that could be reached in the buffer solution used for the functional assay, measured by UV absorption as well as by HPLC, was 2.3 µM.

[5] = Maximum concentration reached in the functional assay buffer, by UV absorption and HPLC; type: physicochemical; settings: measured by UV absorption and HPLC
Procedure: as §3

[6] = [3H]-CP-55,940 displacement, HEK-293 membranes, 90 min at 30 °C, Cheng-Prusoff, read-out: Ki hCB2R (µM ± S.E.)
[7] = read-out: % Displacement/ Max Conc. Tested, hCB2R (converted)
[8] = [3H]-CP-55,940 displacement, HEK-293 membranes, 90 min at 30 °C, Cheng-Prusoff, read-out: Ki hCB1R (µM ± S.E.)
[9] = stable CHO cells expressing the human CB2, read-out: EC50, reduction of NKH-477-induced cAMP levels
[10] = max conc. tested 10 µM, read-out: % Displacement/ Max Conc. Tested, hCB2R (converted)

T1 sequence (P34972 whole entry): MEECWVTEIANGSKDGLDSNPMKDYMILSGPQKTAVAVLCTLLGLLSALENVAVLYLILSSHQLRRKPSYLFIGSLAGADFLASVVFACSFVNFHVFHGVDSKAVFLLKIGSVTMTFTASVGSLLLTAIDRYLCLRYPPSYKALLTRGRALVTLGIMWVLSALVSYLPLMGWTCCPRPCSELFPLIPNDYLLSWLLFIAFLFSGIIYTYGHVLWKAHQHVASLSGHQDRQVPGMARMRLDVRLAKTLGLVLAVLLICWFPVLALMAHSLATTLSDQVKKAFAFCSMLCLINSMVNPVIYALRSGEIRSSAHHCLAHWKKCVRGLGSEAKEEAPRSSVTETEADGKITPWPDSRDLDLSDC

With CC(C)(C)N1CC(=NS(=O)(=O)c2ccccc2)N(CC2CC2)C1=O [Compound 10b, N-[1-tert-Butyl-3-cyclopropylmethyl-2-oxoimidazolidin-4-ylidene]benzenesulfonamide] the Ki [1, 6] was 1.67 ± 0.16 µM, the inhibition at 25 µM [1, 7] was 73% and the Ki [2, 8] was greater than 10 µM. The inhibition at 10 µM [2] was 10.5%, the “Effect on NKH-477-induced cAMP levels (functional behavior)” value (“Effect on NKH-477-induced cAMP levels” below) [3] was “typical agonist behavior” and the EC50 [3, 9] was 1260 nM. It also gave a melting point of 114.5 to 115 °C.
CC(C)(C)N1CC(=NS(=O)(=O)c2cccc(Br)c2)N(CC2CC2)C1=O [Compound 10e, 3-Bromo-N-[1-tert-Butyl-3-cyclopropylmethyl-2-oxoimidazolidin-4-ylidene]benzenesulfonamide] showed a Ki [1, 6] of 0.34 ± 0.08 µM, an inhibition at 10 µM [1, 10] of 83.5% and a Ki [2, 8] greater than 10 µM. For the same compound, the inhibition at 10 µM [2] was 10.8%, the “Effect on NKH-477-induced cAMP levels” value [3] was “typical agonist behavior” and the EC50 [3, 9] was 264 nM. For the same compound, the melting point was 114 to 115 °C.
With CC(C)(C)N1CC(=NS(=O)(=O)c2cccc3ccccc23)N(CC2CC2)C1=O [Compound 10g, N-[1-tert-Butyl-3-cyclopropylmethyl-2-oxoimidazolidin-4-ylidene]naphthalene-1-sulfonamide] the Ki [1] was 0.06 ± 0.01 µM, the inhibition at 10 µM ([1]; read-out: % Displacement/ Max Conc. Tested, hCB2R) was 95.7% and the Ki [2] was greater than 10 µM. The inhibition at 10 µM [2] was 24.9%, the EC50 [3] was 72 nM and the “Effect on NKH-477-induced cAMP levels” value [3] was “typical agonist behavior”.
With CS(=O)(=O)N=C1CN(C23CC4CC(CC(C4)C2)C3)C(=O)N1CC1CC1 [Compound 12a, N-[1-Adamant-1-yl-3-cyclopropylmethyl-2-oxoimidazolidin-4-ylidene]methanesulfonamide] the Ki [1, 6] was 0.28 ± 0.05 µM, the inhibition at 25 µM [1, 7] was 76.5% and the Ki [2, 8] was 0.21 ± 0.004 µM. The inhibition at 25 µM [2] was 76.5%, the “Effect on NKH-477-induced cAMP levels” value [3] was “typical agonist behavior” and the EC50 [3, 9] was 2140 nM. For the same compound, the melting point was 199.5 to 200 °C.
With O=C1N(CC2CC2)C(=NS(=O)(=O)c2ccccc2)CN1C12CC3CC(CC(C3)C1)C2 [Compound 12b, N-[1-Adamant-1-yl-3-cyclopropylmethyl-2-oxoimidazolidin-4-ylidene]benzenesulfonamide] the Ki [1, 6] was 0.26 ± 0.03 µM, the inhibition at 25 µM [1, 7] was 84.5% and the “Antagonism of JWH-133-induced inhibition of NKH-477-induced cAMP formation” value [4] was “did not antagonize the agonist challenge”. The Ki [2, 8] was greater than 10 µM, the inhibition at 25 µM [2] was 29.5% and the “Maximum concentration that could be reached in the buffer solution used for the functional assay” value [5] was 2.3 µM. For the same compound, the “Effect on NKH-477-induced cAMP levels” value [3] was “did not alter the level of cAMP” and the melting point was 198 to 198.5 °C.
In the case of O=C1N(CC2CC2)C(=NS(=O)(=O)c2cccc(Br)c2)CN1C12CC3CC(CC(C3)C1)C2 [Compound 12e, N-[1-Adamant-1-yl-3-cyclopropylmethyl-2-oxoimidazolidin-4-ylidene]-3-bromo-1-benzenesulfonamide], the Ki [1, 6] is reported as 0.16 ± 0.03 µM, the inhibition at 10 µM [1, 10] is reported as 71.4% and the “Antagonism of JWH-133-induced inhibition of NKH-477-induced cAMP formation” value [4] is reported as “fully antagonize”. The Ki [2, 8] was greater than 10 µM, the inhibition at 10 µM [2] was 5.07% and the “Effect on NKH-477-induced cAMP levels” value [3] was “did not alter the level of cAMP”. The melting point was 138 to 138.5 °C.
Work on O=C1N(CC2CC2)/C(=N/S(=O)(=O)c2ccc3ccccc3c2)CN1C12CC3CC(CC(C3)C1)C2 [Compound 12h, N-[1-Adamant-1-yl-3-cyclopropylmethyl-2-oxoimidazolidin-4-ylidene]naphtalene-2-sulfonamide] yielded a Ki [1, 6] greater than 10 µM, an inhibition at 10 µM [1, 10] of 17.7% and a Ki [2, 8] greater than 10 µM. The inhibition at 10 µM [2] was 38.5% and the melting point was 167 to 167.5 °C.
With CCCC(C)(C)c1ccc2c(c1)OC(C)(C)[C@@H]1CC=C(C)C[C@@H]21 [JWH-133, reference compound] the “EC80 concentration of agonist challenge” value ([4]; previously determined in separate experiments) was 4000 nM.

— article PMC9738591, “N-[1,3-Dialkyl(aryl)-2-oxoimidazolidin-4-ylidene]-aryl(alkyl)sulphonamides as Novel Selective Human Cannabinoid Type 2 Receptor (hCB2R) Ligands; Insights into the Mechanism of Receptor Activation/Deactivation” (Molecules, 2022)
